One assay relates to Penicillium oxalicum. Briefly: Antimicrobial activity against Penicillium oxalicum CBS 219.30 at 25 ug. The format is functional, organism-based.
For the next assay, the system named is Bacillus subtilis. Briefly: Antimicrobial activity against Bacillus subtilis ATCC 6633 at 25 ug. The assay is classed as functional, organism-based.
The next assay has as its system Micrococcus luteus. Briefly: Antimicrobial activity against Micrococcus luteus ATCC 9341 at 25 ug. The assay is classed as functional, organism-based.
The next assay concerns Escherichia coli. Briefly: Antimicrobial activity against Escherichia coli ATCC 25922 at 25 ug. The assay is classed as functional, organism-based.
For assay [1], the system named is Platelet. Briefly: Inhibition of epinephrine-induced platelet aggregation in human platelet-rich plasma at 1 mM by turbidimetric method. The format is functional. The arrangement: scale not given: the % may be the effect or the level left.
Assay [2] concerns Platelet. Briefly: Inhibition of ADP-induced platelet aggregation in human platelet-rich plasma at 1 mM by turbidimetric method. The assay is classed as functional. Also on record: Activity: scale not given: the % may be the effect or the level left.
Assay [3] deals with Platelet. Briefly: Inhibition of collagen-induced platelet aggregation in human platelet-rich plasma at 1 mM by turbidimetric method. The format is functional. The arrangement: Activity: scale not given: the % may be the effect or the level left.
The test system of assay [4] is Platelet. Briefly: Inhibition of collagen-induced platelet aggregation in human platelet-rich plasma assessed as increase in lag time at 1 mM by turbidimetric method. The arrangement: scale not given: the % may be the effect or the level left. The format is functional.

Active and inactive are the calls of the source. No cut-off for these calls is given here.

`C[S+]([O-])C[C@H](N)C(=O)O` (some centres not stated): the result in the assay with Penicillium oxalicum, with Bacillus subtilis, in the assay with Micrococcus luteus and in the assay on Escherichia coli was inactive.
In the case of `C=CC[S+]([O-])C[C@H](NC[C@@]1(O)OC[C@@H](O)[C@@H](O)[C@@H]1O)C(=O)O` (some centres not stated), the outcome in the assay on Penicillium oxalicum, in the assay on Bacillus subtilis, in the assay on Micrococcus luteus and with Escherichia coli was inactive. Besides, the Activity in the assay on Platelet [1] worked out at 40.2%; with Platelet [2] it was 39.2%; in the assay with Platelet [3], 82%; in the assay with Platelet [4], 50%.
As for `C/C=C/[S+]([O-])C[C@H](N)C(=O)O` (some centres not stated), the outcome in the assay on Penicillium oxalicum, in the assay with Bacillus subtilis, in the assay on Micrococcus luteus and with Escherichia coli was inactive.
As to `C=CC[S+]([O-])C[C@H](N)C(=O)O` (some centres not stated) [ALLIIN], the outcome in the assay with Penicillium oxalicum, in the assay on Bacillus subtilis, in the assay on Micrococcus luteus and with Escherichia coli was inactive. Besides, the IC50 (commonly the concentration needed to halve the response being measured) turned out to be 60 µM in the assay with Platelet [2] (Homo sapiens, Platelet, Plasma) and 60 µM in the assay on Platelet [3] (Homo sapiens, Platelet, Plasma).

The record behind these values is ChEMBL document CHEMBL1148165, “A novel amino acid glycoside and three amino acids from Allium sativum” (J Nat Prod, 1993).
